# In PMC11054271, “ABCG2 Transports the Flukicide Nitroxynil and Affects Its Biodistribution and Secretion into Milk” (Pharmaceutics, 2024):
# Like-named read-outs stand apart in the source and are kept apart here.
# Tests used:
# Format in all cases: in vivo
# murine Abcg2 [1] = test system: T1, murine Abcg2; assay: Milk secretion experiment in lactating wild-type and Abcg2−/− female mice; conditions: FVB/N, mouse, intravenous, lactating wild-type female mice, 30 min after 10 mg/kg i.v.
# T1 construct: from tissue; host or cells: whole animal: wild-type vs Abcg2-/- mice, >99% FVB/N background
# Protocol: (§1) All in vivo experiments were carried out using wild-type and Abcg2^−/− mice aged between 8 and 17 weeks, all of >99% FVB/N genetic background, generated and gently supplied by A. H. Schinkel (Netherlands Cancer Institute). Mice were housed and handled complying with institutional and ARRIVE guidelines and European legislation (EU Directive 2010/63/EU for animal experiments). Additionally, experimental procedures were approved by the Animal Care and Use Committee of the University of León and the Junta de Castilla y León (ULE_011_2019).
# (§2) Pups of approximately 10 days old were separated from their mothers (wild-type (n = 10) and Abcg2^−/− (n = 11) female mice) 3 h before beginning the experiment. Milk secretion experiments were performed as previously described. Nitroxynil solution was prepared by diluting Distomicide® (250 mg/mL) commercial solution in saline and administered at a dose of 150 μL/30 g bw into the tail vein under anesthesia with isoflurane. An amount of 200 μL oxytocin (1 IU/mL) was administrated subcutaneously 10 min before milk collection. Blood and milk samples were collected from retro-orbital sinus and mammary gland, respectively, 30 min after nitroxynil administration.
# (§3) Plasma, milk and tissue samples from each animal were individually processed and analyzed without pooling, while samples from transport assays were not processed. Tissue samples were homogenized in a mixture of 50% water/50% methanol HCl 0.5% (v/v); 1 mL solution per 0.1 g tissue. The entire amount of collected milk (74.7–295.1 mg) and 100 μL plasma and tissue homogenates were processed. To each sample, 10 μL of a nitrofurantoin solution (10 μg/mL for plasma and milk and 2 μg/mL for homogenized tissues) was added as an internal standard and 150 μL acetonitrile was used to precipitate the proteins. The mixture was vortexed horizontally for 15 min and centrifugated at 10,000× g for 5 min at 4 °C. Supernatant was transferred to a new tube and dried at 40 °C under N2 stream. Samples were reconstituted in 100 μL of mobile phase and 50 μL was injected into HPLC. Standards were subjected to the same procedures as samples.
# (§4) Waters 2695 separation module and Waters 2998 UV photodiode array detector set at 270 nm were used for samples analysis. Chromatographic conditions for nitroxynil detection were based on previously described methods, with minor modifications. Chromatographic separation was achieved on a reverse-phase column (Synergy 4 μm Hydro–RP 80 Å, 250 × 4.60 mm; Phenomenex®, Torrance, CA, USA) using an isocratic binary mobile phase consisting of 25 mM potassium phosphate monobasic (KH2PO4), pH 4: acetonitrile (70:30 for culture samples and 80:20 for animal samples) at a flow rate of 1 mL/min. Autosampler and column temperature were 4 °C and 40 °C, respectively. Limit of detection (LOD) and quantification (LOQ) were calculated as previously described. For cell culture samples, LOD and LOQ were 0.003 μg/mL and 0.007 μg/mL, respectively. For in vivo samples, LOD was in the range of 0.01–0.07 μg/mL and LOQ in the range of 0.03–0.15 μg/mL.
# murine Abcg2 [2] = assay: as above; conditions: FVB/N, mouse, intravenous, lactating Abcg2−/− female mice, 30 min after 10 mg/kg i.v.
# Protocol: as §1, §2, §3, §4
# murine Abcg2 [3] = target: T2, murine Abcg2 (Mus musculus, UniProt Q7TMS5); assay: Tissue distribution in wild-type and Abcg2−/− male mice; set-up: from tissue; host or cells: whole animal: wild-type vs Abcg2-/- mice, >99% FVB/N background
# T2 sequence (Q7TMS5 1-657): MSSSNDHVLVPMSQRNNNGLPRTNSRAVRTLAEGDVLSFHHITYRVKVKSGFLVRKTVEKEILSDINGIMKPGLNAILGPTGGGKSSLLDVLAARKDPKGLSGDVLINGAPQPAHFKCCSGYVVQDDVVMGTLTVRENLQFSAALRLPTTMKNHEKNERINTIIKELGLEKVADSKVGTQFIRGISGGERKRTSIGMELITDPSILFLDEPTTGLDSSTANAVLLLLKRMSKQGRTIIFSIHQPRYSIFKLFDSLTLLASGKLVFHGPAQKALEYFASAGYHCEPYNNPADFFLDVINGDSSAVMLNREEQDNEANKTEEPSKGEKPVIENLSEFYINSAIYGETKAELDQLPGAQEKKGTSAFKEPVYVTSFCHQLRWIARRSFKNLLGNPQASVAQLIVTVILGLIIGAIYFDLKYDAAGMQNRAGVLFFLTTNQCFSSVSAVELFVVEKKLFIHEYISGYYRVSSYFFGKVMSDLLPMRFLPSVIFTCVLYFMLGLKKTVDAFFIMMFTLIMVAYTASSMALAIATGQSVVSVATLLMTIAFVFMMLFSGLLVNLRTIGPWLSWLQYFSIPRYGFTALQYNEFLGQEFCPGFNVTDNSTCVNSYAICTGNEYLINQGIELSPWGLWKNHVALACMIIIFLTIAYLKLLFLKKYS
# Protocol: as §1
# For pharmacokinetic experiments, a single dose of nitroxynil at 10 mg/kg was administered subcutaneously to wild-type and Abcg2^−/− male mice (n = 4–5, for each time point). Distomicide® (250 mg/mL) commercial solution was dissolved in saline (sodium chloride 0.9%) and dosed at 200 μL per 30 g body weight. Blood samples were collected at different time points (0.5, 3, 4.5, 6, 24, 48 and 96 h) and heparinized blood samples were centrifugated for 15 min at 3000× g. Organs were also collected at 24 and 96 h after euthanasia. Linear trapezoidal rule was used to calculate the area under the plasma concentration–time curve (AUC) parameter.
# as §3, §4
# [4] = milk and plasma, read-out: Milk-to-plasma ratio
# [5] = milk, read-out: Milk concentration
# [6] = plasma, read-out: Plasma concentration
# [7] = wild-type male mice, 96 h, 10 mg/kg s.c.
structure (smiles),measurement,setting,value
N#Cc1cc(I)c(O)c([N+](=O)[O-])c1 [nitroxynil],Kp at 30 min,murine Abcg2 [1]; [4],0.3 ± 0.1
same,concentration at 30 min,murine Abcg2 [1]; [5],15700 ± 6300 ng/mL
same,concentration at 30 min,murine Abcg2 [1]; [6],58800 ± 11200 ng/mL
same,Kp at 30 min,murine Abcg2 [2]; [4],0.1 ± 0.03
same,concentration at 30 min,murine Abcg2 [2]; [5],8100 ± 1000 ng/mL
same,concentration at 30 min,murine Abcg2 [2]; [6],62800 ± 13900 ng/mL
same,"Concentration in kidney, small intestine and testis, fold higher in Abcg2−/− mice","murine Abcg2 [3]; abstract statement, time not given",~2 fold
same,"Small intestine levels, fold higher in Abcg2−/− compared with wild-type","murine Abcg2 [3]; male mice, 24 h, 10 mg/kg s.c.",1.4 fold
same,"Spleen accumulation, fold higher in Abcg2−/− compared with wild-type","murine Abcg2 [3]; male mice, 24 h, 10 mg/kg s.c.",1.7 fold
same,"Testis concentration, fold higher in Abcg2−/− compared with wild-type","murine Abcg2 [3]; male mice, 24 h, 10 mg/kg s.c.",~1.6 fold
same,"Tissue concentration, liver",murine Abcg2 [3]; [7],<LOQ
same,"Tissue concentration, small intestine",murine Abcg2 [3]; [7],<LOQ
same,"Tissue concentration, spleen",murine Abcg2 [3]; [7],<LOQ
same,"Tissue concentration, testis",murine Abcg2 [3]; [7],<LOQ
